In EP1283052A1, “Pharmaceutical composition containing caspase-8 and /or caspase-9 useful for overcoming glucocorticoid- and cancer therapy-induced apoptosis of tumours” (Deutsches Krebsforschungszentrum Stiftung des öffentlichen …, priority 2001, dated 2003):

Test system: caspase-9 and -6
Assay: Fluorometric caspase-6/9 activity assay in CEM cells
Assay type: cell-based, human
Details: cisplatin 2 µg/ml alone, Fig. 5a
Experimental: • (a) P693 and CEM cells were treated with cisplatin (2 µg/ml) in the absence or presence of DEX (1 µM) as indicated. 24 and 48 h following treatment cells were lysed and caspase-9 activity was determined using a fluorescent caspase-9 assay and spectroscopy. • (b) P5 and CEM cells were treated as described above. 24 h after stimulation Apaf-1 was immunoprecipitated from the cell extracts using a […]. Aliquotes of the precipitates were separated by three different gels and analysed by Western blotting using rabbit polyclonal Apaf-1, mAb cytochrome c or caspase-9 antibodies. The antibody heavy chain band (IgGH) ensures equal conditions. […]
• (A) Cell culture. […] The mice were given 0.28 mg/L DEX in drinking water, and the amount of water consumed was monitored. […] The tumour volumes were measured using callipers, and calculated using, as an approximation, the formula for volume of a hemi-ellipsoid: π(width^2 x length)/6. […] Early apoptotic changes were identified by staining of cells with fluoresceinthiocyanate (FITC)-conjugated annexin V and propidium iodide (Becton Dickinson, Heidelberg, Germany) and analysed by flow cytometry (FACScan, Becton Dickinson) as described (Herr et al., EMBO J. 16 (1997), 6200-6208) • (E) Immunohistochemistry. […] Bound antibodies were detected by FITC conjugated anti-mouse or anti-rabbit IgG (Molecular Probes Europe, Leiden, The Netherlands). […]

N.N.[Cl][Pt][Cl] [cisplatin]
caspase-6/9 activity: induced 24 h following cisplatin in P693 and CEM cells with increasing activity at 48 h
